From patent EP0384722A1, “Chemical compositions” (PITMAN-MOORE LIMITED, priority 1989, dated 1990)

Experiment: Bioavailability in dogs of two injectable formulations (GF s/c, OS i/m) of Compound A and Sulphadimethoxine (serum levels)
Type: in vivo
Details: 30mg total a.i./kg
Description: GF = Solution in glycofurol of Compound A 2% w/v and sulphadimethoxine (SDM), 10% w/v; OS = Suspension in Miglyol 812 of Compound A, 2% w/v and SDM, 10% w/v
Six adult beagles (three male, three female, including Dogs 1 to 4 of Example 1) and six adult male cats, housed in Coopers' kennels were in all cases given a single injection at 30mg. total a.i./kg. bodyweight, i.e. 1ml./4kg. The glycofurol solution (GF) was injected s/c in the dorsal neck region and the oily suspension (OS) was injected i/m in the quadriceps (anterior thigh) muscles.
Blood samples (jugular venous samples or on some occasions from the cats, cephalic vein samples) were collected before and after injection at the times indicated in Tables 5 to 8).
A standard well-plate bio-assay method was used for Compound A, SDM being estimated by the Bratton-Marshall method. (The bio-assay method cannot distinguish between parent compound and any active metabolites present, but the results are expressed as mg/L Compound A).

With `COc1cc(NS(=O)(=O)c2ccc(N)cc2)nc(OC)n1` [SDM, sulphadimethoxine] the “Serum concentrations of SDM” value (dog No.1, GF s/c, 0 hours p.i.) was 0 ng/mL, the “Serum concentrations of SDM” value (dog No.1, GF s/c, 1 hours p.i.) was 82000 ng/mL and the “Serum concentrations of SDM” value (dog No.1, GF s/c, 4 hours p.i.) was 95000 ng/mL. The “Serum concentrations of SDM” value (dog No.1, GF s/c, 7 hours p.i.) was 99000 ng/mL, the “Serum concentrations of SDM” value (dog No.1, GF s/c, 24 hours p.i.) was 47000 ng/mL and the “Serum concentrations of SDM” value (dog No.1, GF s/c, 28 hours p.i.) was 34000 ng/mL. The “Serum concentrations of SDM” value (dog No.1, GF s/c, 31 hours p.i.) was 30000 ng/mL, the “Serum concentrations of SDM” value (dog No.1, GF s/c, 48 hours p.i.) was 24000 ng/mL and the “Serum concentrations of SDM” value (dog No.1, GF s/c, 55 hours p.i.) was 17000 ng/mL. For the same compound, the “Serum concentrations of SDM” value (dog No.1, GF s/c, 72 hours p.i.) was 14000 ng/mL, the “Serum concentrations of SDM” value (dog No.2, OS i/m, 0 hours p.i.) was 0 ng/mL and the “Serum concentrations of SDM” value (dog No.2, OS i/m, 1 hours p.i.) was 5000 ng/mL. For the same compound, the “Serum concentrations of SDM” value (dog No.2, OS i/m, 4 hours p.i.) was 23000 ng/mL, the “Serum concentrations of SDM” value (dog No.2, OS i/m, 7 hours p.i.) was 35000 ng/mL and the “Serum concentrations of SDM” value (dog No.2, OS i/m, 24 hours p.i.) was 34000 ng/mL. For the same compound, the “Serum concentrations of SDM” value (dog No.2, OS i/m, 28 hours p.i.) was 31000 ng/mL, the “Serum concentrations of SDM” value (dog No.2, OS i/m, 31 hours p.i.) was 29000 ng/mL and the “Serum concentrations of SDM” value (dog No.2, OS i/m, 48 hours p.i.) was 35000 ng/mL. For the same compound, the “Serum concentrations of SDM” value (dog No.2, OS i/m, 55 hours p.i.) was 27000 ng/mL, the “Serum concentrations of SDM” value (dog No.2, OS i/m, 72 hours p.i.) was 6000 ng/mL and the “Serum concentrations of SDM” value (dog No.3, GF s/c, 0 hours p.i.) was 0 ng/mL. For the same compound, the “Serum concentrations of SDM” value (dog No.3, GF s/c, 1 hours p.i.) was 21000 ng/mL, the “Serum concentrations of SDM” value (dog No.3, GF s/c, 4 hours p.i.) was 90000 ng/mL and the “Serum concentrations of SDM” value (dog No.3, GF s/c, 7 hours p.i.) was 99000 ng/mL. The “Serum concentrations of SDM” value (dog No.3, GF s/c, 24 hours p.i.) was 51000 ng/mL, the “Serum concentrations of SDM” value (dog No.3, GF s/c, 28 hours p.i.) was 40000 ng/mL and the “Serum concentrations of SDM” value (dog No.3, GF s/c, 31 hours p.i.) was 30000 ng/mL. The “Serum concentrations of SDM” value (dog No.3, GF s/c, 48 hours p.i.) was 19000 ng/mL, the “Serum concentrations of SDM” value (dog No.3, GF s/c, 55 hours p.i.) was 12000 ng/mL and the “Serum concentrations of SDM” value (dog No.3, GF s/c, 72 hours p.i.) was 21000 ng/mL. For the same compound, the “Serum concentrations of SDM” value (dog No.4, OS i/m, 0 hours p.i.) was 0 ng/mL, the “Serum concentrations of SDM” value (dog No.4, OS i/m, 1 hours p.i.) was 7000 ng/mL and the “Serum concentrations of SDM” value (dog No.4, OS i/m, 4 hours p.i.) was 26000 ng/mL. The “Serum concentrations of SDM” value (dog No.4, OS i/m, 7 hours p.i.) was 36000 ng/mL, the “Serum concentrations of SDM” value (dog No.4, OS i/m, 24 hours p.i.) was 38000 ng/mL and the “Serum concentrations of SDM” value (dog No.4, OS i/m, 28 hours p.i.) was 37000 ng/mL. For the same compound, the “Serum concentrations of SDM” value (dog No.4, OS i/m, 31 hours p.i.) was 35000 ng/mL, the “Serum concentrations of SDM” value (dog No.4, OS i/m, 48 hours p.i.) was 26000 ng/mL and the “Serum concentrations of SDM” value (dog No.4, OS i/m, 55 hours p.i.) was 19000 ng/mL. For the same compound, the “Serum concentrations of SDM” value (dog No.4, OS i/m, 72 hours p.i.) was 10000 ng/mL, the “Serum concentrations of SDM” value (dog No.5, OS i/m, 0 hours p.i.) was 0 ng/mL and the “Serum concentrations of SDM” value (dog No.5, OS i/m, 1 hours p.i.) was 12000 ng/mL. For the same compound, the “Serum concentrations of SDM” value (dog No.5, OS i/m, 4 hours p.i.) was 43000 ng/mL, the “Serum concentrations of SDM” value (dog No.5, OS i/m, 7 hours p.i.) was 53000 ng/mL and the “Serum concentrations of SDM” value (dog No.5, OS i/m, 24 hours p.i.) was 42000 ng/mL. For the same compound, the “Serum concentrations of SDM” value (dog No.5, OS i/m, 28 hours p.i.) was 41000 ng/mL, the “Serum concentrations of SDM” value (dog No.5, OS i/m, 31 hours p.i.) was 43000 ng/mL and the “Serum concentrations of SDM” value (dog No.5, OS i/m, 48 hours p.i.) was 34000 ng/mL. For the same compound, the “Serum concentrations of SDM” value (dog No.5, OS i/m, 55 hours p.i.) was 25000 ng/mL, the “Serum concentrations of SDM” value (dog No.5, OS i/m, 72 hours p.i.) was 20000 ng/mL and the “Serum concentrations of SDM” value (dog No.6, GF s/c, 0 hours p.i.) was 0 ng/mL. For the same compound, the “Serum concentrations of SDM” value (dog No.6, GF s/c, 1 hours p.i.) was 26000 ng/mL, the “Serum concentrations of SDM” value (dog No.6, GF s/c, 4 hours p.i.) was 79000 ng/mL and the “Serum concentrations of SDM” value (dog No.6, GF s/c, 7 hours p.i.) was 94000 ng/mL. The “Serum concentrations of SDM” value (dog No.6, GF s/c, 24 hours p.i.) was 56000 ng/mL, the “Serum concentrations of SDM” value (dog No.6, GF s/c, 28 hours p.i.) was 47000 ng/mL and the “Serum concentrations of SDM” value (dog No.6, GF s/c, 31 hours p.i.) was 45000 ng/mL. The “Serum concentrations of SDM” value (dog No.6, GF s/c, 48 hours p.i.) was 34000 ng/mL, the “Serum concentrations of SDM” value (dog No.6, GF s/c, 55 hours p.i.) was 21000 ng/mL and the “Serum concentrations of SDM” value (dog No.6, GF s/c, 72 hours p.i.) was 10000 ng/mL.
